This experiment concerns the target hKCNQ2/3 (Homo sapiens, UniProt O43525+O43526). Put plainly: Fluorescence assay using a voltage sensitive dye. Type of experiment: cell-based. Also on record: expressed in transfected cells; host or cells: CHO-K1. The method, then:
Biological Data Fluorescence Assay Using a Voltage Sensitive Dye
Human CHO-K1 cells expressing KCNQ2/3 channels are cultivated adherently at 37° C., 5% CO2 and 95% humidity in cell culture bottles (e.g. 80 cm^2 TC flasks, Nunc) with DMEM-high glucose (Sigma Aldrich, D7777) including 10% FCS (PAN Biotech, e.g. 3302-P270521) or alternatively with MEM Alpha Medium (1×, liquid, Invitrogen, #22571), 10% fetal calf serum (FCS) (Invitrogen, #10270-106, heat-inactivated) and the necessary selection antibiotics.
Before being distributed for the measurements, the cells are washed with a 1×DPBS buffer without Ca^2+/Mg^2+ (e.g. Invitrogen, #14190-094) and detached from the bottom of the culture vessel by means of Accutase (PAA Laboratories, #L11-007) (incubation with Accutase for 15 min at 37° C.). The cell count then present is determined using a CASY™ cell counter (TCC model, Schärfe System) in order subsequently to apply, according to density optimization for the individual cell line, 20,000-30,000 cells/well/100 μl of the described nutrient medium to 96-well measuring plates of the Corning™ CellBIND™ type (Flat Clear Bottom Black Polystyrene Microplates, #3340). Incubation is then carried out for one hour at room temperature, without gassing or adjusting the humidity, followed by incubation for 24 hours at 37° C., 5% CO2 and 95% humidity.
The voltage-sensitive fluorescent dye from the Membrane Potential Assay Kit (Red™ Bulk format part R8123 for FLIPR, MDS Analytical Technologies™) is prepared by dissolving the contents of a vessel Membrane Potential Assay Kit Red Component A in 200 ml of extracellular buffer (ES buffer, 120 mM NaCl, 1 mM KCl, 10 mM HEPES, 2 mM CaCl2, 2 mM MgCl2, 10 mM glucose; pH 7.4). After removal of the nutrient medium, the cells are washed with 200 μl of ES buffer, then covered with a layer of 100 μl of the dye solution prepared above and incubated for 45 min at room temperature with the exclusion of light.
The fluorescence measurements are carried out with a BMG Labtech FLUOstar™ or BMG Labtech NOVOstar™ or BMG Labtech POLARstar™ instrument (525 nm excitation, 560 nm emission, Bottom Read mode). After incubation of the dye, 50 μl of the test substances in the desired concentrations, or 50 μl of ES buffer for control purposes, are introduced into separate cavities of the measuring plate and incubated for 30 min at room temperature while being shielded from light. The fluorescence intensity of the dye is then measured for 5 min and the fluorescence value F1 of each well is thus determined at a given, constant time. 15 μL of a 100 mM KCl solution ([…]) are then added to each well. The change in fluorescence is subsequently measured until all the relevant measured values have been obtained (mainly 5-30 min). At a given time after KCl application, a fluorescence value F2 is determined, in this case at the time of the fluorescence peak.
For calculation, the fluorescence intensity F2 is compared with the fluorescence intensity F1, and the agonistic activity of the target compound on the potassium channel is determined therefrom. F2 and F1 are calculated as follows:
[formula] In order to determine whether a substance has an agonistic activity,
[formula] for example, can be compared with
[formula] of control cells.
[formula] is determined by adding to the reaction batch only the buffer solution instead of the substance to be tested, determining the value F1K of the fluorescence intensity, adding the potassium ions as described above and measuring a value F2K of the fluorescence intensity. Then F2K and F1K are calculated as follows:
[formula] A substance has an agonistic activity on the potassium channel when
[formula] is greater than
[formula] Independently of the comparison of
[formula] it is also possible to conclude that a target compound has agonistic activity if an increase in
[formula] is to be observed as the dosage of the target compound increases. […]
The EC50 is the concentration needed to bring the measured effect to its halfway point. Lower therefore signals a more potent agent. For the molecule `Cc1ccc(CNC(=O)c2cccnc2SCCS(=O)(=O)c2ccccc2)cc1` [Example 5, N-(4-methylbenzyl)-2-(2-(phenylsulfonyl)ethylthio)-nicotinamide], the response was half-maximal at 1860 nM (EC50).

Molecule `O=C(NCc1cc(F)cc(F)c1)c1cccnc1SCCS(=O)(=O)c1ccccc1` [Example 8, N-(3,5-difluorobenzyl)-2-(2-(phenylsulfonyl)ethylthio)nicotinamide] showed an EC50 of 1280 nM.

Turning to `O=C(NCc1ccccc1F)c1cccnc1SCCS(=O)(=O)c1ccccc1` [Example 11, N-(2-fluorobenzyl)-2-(2-(phenylsulfonyl)ethylthio)nicotinamide], the EC50 amounted to 1170 nM. This EC50 and that of the molecule before are within 1.5-fold of each other.

Molecule `O=C(NCc1ccc(F)c(F)c1)c1cccnc1SCCS(=O)(=O)c1ccccc1` [Example 12, N-(3,4-difluorobenzyl)-2-(2-(phenylsulfonyl)ethylthio)nicotinamide] showed an EC50 of 1800 nM.

For the molecule `CN(Cc1cccc(Br)c1)C(=O)c1cccnc1SCCS(=O)(=O)c1ccccc1` [Example 13, N-(3-bromobenzyl)-N-methyl-2-(2-(phenylsulfonyl)ethylthio)nicotinamide], the EC50 is 1400 nM.

The molecule `O=C(NCc1cccc(F)c1)c1cccnc1SCCS(=O)(=O)c1ccccc1` [Example 15, N-(3-fluorobenzyl)-2-(2-(phenylsulfonyl)ethylthio)nicotinamide] came in with an EC50 of 2480 nM.

`COc1ccc(CNC(=O)c2cccnc2SCCS(=O)(=O)c2ccccc2)cc1` [Example 17, N-(4-methoxybenzyl)-2-(2-(phenylsulfonyl)ethylthio)nicotinamide] yielded a half-maximal effective concentration (EC50) of 6520 nM.

The molecule `O=C(NCc1ccc(Cl)c(Cl)c1)c1cccnc1SCCS(=O)(=O)c1ccccc1` [Example 19, N-(3,4-dichlorobenzyl)-2-(2-(phenylsulfonyl)ethylthio)nicotinamide] returned a concentration giving a half-maximal response (EC50) of 1270 nM.

In the case of `O=C(NCc1ccc(F)cc1)c1cccnc1SCCS(=O)(=O)c1ccccc1` [Example 20, N-(4-fluorobenzyl)-2-(2-(phenylsulfonyl)ethylthio)nicotinamide], the EC50 was determined as 1280 nM.

`O=C(NCc1cccc(Cl)c1)c1cccnc1SCCS(=O)(=O)c1ccccc1` [Example 25, N-(3-chlorobenzyl)-2-(2-(phenylsulfonyl)ethylthio)nicotinamide] yielded an EC50 of 1280 nM.

As to `Cc1ccc(S(=O)(=O)CCSc2ncccc2C(=O)NCc2cccs2)cc1` [Example 36, N-(thiophen-2-ylmethyl)-2-(2-tosylethylthio)nicotinamide], the EC50 came out at 4110 nM.

On to `Cc1ccc(S(=O)(=O)CCSc2ncccc2C(=O)NCc2ccco2)cc1` [Example 39, N-(furan-2-ylmethyl)-2-(2-tosylethylthio)nicotinamide], for which the EC50 was found to be 6090 nM.

`Cc1ccc(S(=O)(=O)CCSc2ncccc2C(=O)NCc2cc(F)cc(F)c2)cc1` [Example 41, N-(3,5-difluorobenzyl)-2-(2-tosylethylthio)nicotinamide] returned an EC50 of 2390 nM.

Regarding `Cc1ccc(S(=O)(=O)CCSc2ncccc2C(=O)NCc2ccccc2F)cc1` [Example 43, N-(2-fluorobenzyl)-2-(2-tosylethylthio)nicotinamide], the half-maximal effective concentration (EC50) stood at 1970 nM.

Molecule `Cc1ccc(S(=O)(=O)CCSc2ncccc2C(=O)NCc2cccc(C)c2)cc1` [Example 44, N-(3-methylbenzyl)-2-(2-tosylethylthio)nicotinamide] showed an EC50 of 2230 nM.

Consider `Cc1ccc(S(=O)(=O)CCSc2ncccc2C(=O)NCc2ccc(F)c(F)c2)cc1` [Example 45, N-(3,4-difluorobenzyl)-2-(2-tosylethylthio)nicotinamide], for which the concentration for a half-maximal effect (EC50) turned out to be 2140 nM.

For `Cc1ccc(S(=O)(=O)CCSc2ncccc2C(=O)NCc2ccc(F)cc2)cc1` [Example 49, N-(4-fluorobenzyl)-2-(2-tosylethylthio)nicotinamide], the response was half-maximal at 7600 nM (EC50).

Regarding `Cc1ccc(S(=O)(=O)CCSc2ncccc2C(=O)NCc2cccc(Cl)c2)cc1` [Example 51, N-(3-chlorobenzyl)-2-(2-tosylethylthio)nicotinamide], a half-maximal effect (EC50) was put at 4120 nM.

Take `Cc1ccc(S(=O)(=O)CCSc2ncccc2C(=O)NCc2cccc(C(F)(F)F)c2)cc1` [Example 52, 2-(2-tosylethylthio)-N-(3-(trifluoromethyl)benzyl)nicotinamide]: the EC50 amounted to 1820 nM.

On to `O=C(NCc1ccccc1)c1cccnc1SCCS(=O)(=O)c1ccccc1` [Example 54, N-benzyl-2-(2-(phenylsulfonyl)ethylthio)nicotinamide], for which the EC50 turned out to be 2340 nM.

`CN(Cc1ccccc1)C(=O)c1cccnc1SCCS(=O)(=O)c1ccccc1` [Example 55, N-benzyl-N-methyl-2-(2-(phenylsulfonyl)ethylthio)nicotinamide] came in with a 50% effective concentration (EC50) of 16500 nM.

On to `CC(NC(=O)c1cccnc1SCCS(=O)(=O)c1ccccc1)c1cccc(C(F)(F)F)c1` (centres unmarked) [Example 57, 2-(2-(phenylsulfonyl)ethylthio)-N-(1-(3-(trifluoromethyl)phenyl)ethyl)-nicotinamide], for which the EC50 was determined as 5700 nM.

In the case of `CC(C)(C)CNC(=O)c1cccnc1SCCS(=O)(=O)c1ccccc1` [Example 60, N-(neopentyl)-2-(2-(phenylsulfonyl)ethylthio)nicotinamide], the half-maximal effective concentration (EC50) is 9590 nM.

Turning to `O=C(NCc1ccco1)c1cccnc1SCCS(=O)(=O)c1ccccc1` [Example 62, N-(furan-2-ylmethyl)-2-(2-(phenylsulfonyl)ethylthio)nicotinamide], the half-maximal effective concentration (EC50) turned out to be 4390 nM.

`O=C(NCc1ccc(SC(F)(F)F)cc1)c1cccnc1SCCS(=O)(=O)c1ccccc1` [Example 64, 2-(2-(phenylsulfonyl)ethylthio)-N-(4-(trifluoromethylthio)benzyl)-nicotinamide] yielded a half-maximal effective concentration (EC50) of 880 nM.

Take `O=C(NCc1cccs1)c1cccnc1SCCS(=O)(=O)c1ccc(Cl)cc1` [Example 99, 2-[2-(4-chlorophenyl)sulfonylethylthio]-N-(2-thienylmethyl)-nicotinamide]: the EC50 was 234 nM.

As for `O=C(NCc1cccs1)c1cccnc1SCCS(=O)(=O)c1ccc(F)cc1` [Example 100, 2-[2-(4-fluorophenyl)sulfonylethylthio]-N-(2-thienylmethyl)-nicotinamide], a half-maximal effect (EC50) was put at 503 nM.

Consider `O=C(NCc1cccs1)c1cccnc1SCCS(=O)(=O)c1ccc(C(F)(F)F)cc1` [Example 102, N-(2-thienylmethyl)-2-[2-[4-(trifluoromethyl)phenyl]sulfonylethylthio]-nicotinamide], for which the EC50 came out at 197 nM.

As to `Cc1cccc(SCCSc2ncccc2C(=O)NCc2cccs2)c1` [Example 105, 2-[2-(m-tolylthio)ethylthio]-N-(2-thienylmethyl)-nicotinamide], the concentration for a half-maximal effect (EC50) amounted to 168 nM.

In the case of `O=C(NCc1cccs1)c1cccnc1SCCS(=O)(=O)c1cccc(F)c1` [Example 106, 2-[2-(3-fluorophenyl)sulfonylethylthio]-N-(2-thienylmethyl)-nicotinamide], the EC50 was determined as 187 nM.

As to `CC(C)(C)CCNC(=O)c1cccnc1SCCS(=O)(=O)c1ccccc1` [Example 107, 2-[2-(benzenesulfonyl)ethylthio]-N-(3,3-dimethylbutyl)-nicotinamide], the EC50 came out at 1420 nM. Against the preceding molecule, the EC50 is about 7.6-fold higher.

Turning to `O=C(NCc1cccs1)c1cccnc1SCCSc1ccccc1` [Example 109, 2-[2-(phenylthio)ethylthio]-N-(2-thienylmethyl)-nicotinamide], it took 75 nM to reach a half-maximal effect (EC50).

For the origin of these results see patent publication US8084470B2, “Substituted nicotinamide compounds and uses thereof” (Gruenenthal GmbH, priority 2007, dated 2011).
